US7304090B2, “Inhibition of the cystic fibrosis transmembrane conductance regulator chloride channel” (The University of Bristol, priority 2000, dated 2007)
pKi: −log10 of the molar value.

How the values were obtained:
wild-type human CFTR = target: T1, wild-type human CFTR (Homo sapiens, UniProt P13569); test: CFTR Cl− channels recorded in excised inside-out membrane patches from C127 cells (patch-clamp); assay type: biochemical
T1 construct: expressed in transfected cells
Experimental: For electrophysiological experiments, we used mouse mammary epithelial cells (C127 cells) stably expressing wild-type human CFTR (12). C127 cells expressing wild-type CFTR were cultured as previously described (10). Cells were seeded onto glass coverslips and used within 48 h.
The established sign convention was used throughout; currents produced by positive charge moving from intra- to extracellular solutions (anions moving in the opposite direction) are shown as positive currents.
[…] […] All experiments were conducted at 37° C.
PKA was maintained in the intracellular solution for the duration of experiments. Unless otherwise stated, voltage was −50 mV.
In time course studies, each point is the average current for a 4 s period with data points collected continuously; no data were collected while solutions were changed. Average current (I) for a specific intervention was determined as the average of all the data points collected during the intervention. […] Mean data were fitted to a linear form of equation (1) using linear least-squares regression to yield Ki and n values.
To measure single-channel current amplitude (i), Gaussian distributions were fitted to current amplitude histograms. For open probability (Po) and kinetic analyses, lists of open and closed times were created using a half-amplitude crossing criterion for event detection. Transitions <1 ms in duration were excluded from the analyses. Po was calculated using the equation: Po=(T1+T2+ . . . +TN)/(NTtot), (2) where N is the number of channels; Ttot is the total time analysed, and T1 is the time that one or more channels are open, T2 is the time two or more channels are open and so on. Only membrane patches that contained a single active channel were used for single-channel kinetic analyses.
To investigate whether inhibition of CFTR by fluorescein derivatives was voltage dependent, we used voltage ramp protocols. Macroscopic current-voltage (I-V) relationships were obtained in the absence and presence of fluorescein derivatives by averaging currents generated by 15-30 ramps of voltage each of 2 s duration; holding voltage was −50 mV. Basal currents recorded in the absence of PKA and ATP were subtracted from those recorded in the absence and presence of fluorescein derivatives to determine the effect of these agents on CFTR Cl^− currents.

[1] = system: Type I Madin-Darby canine kidney (MDCK) cells; test: Cyst growth of MDCK cells in collagen gels with cAMP agonists; assay type: cell-based; details: for cyst volume: day 21 vs day 12; for size of cysts (phase-contrast): days 12 to 21
Experimental: (§1) For cyst growth and cell proliferation experiments, we used Type I Madin-Darby canine kidney (MDCK) cells. We chose Type I MDCK cells because they form cysts when grown in collagen gels in the presence of cAMP agonists (26) and because they express the CFTR Cl^− channel (27). MDCK cells were cultured in MDCK media (a 1:1 mixture of Dulbecco's Modified Eagle Medium (DMEM) and Ham's F-12 nutrient medium supplemented with 100 U ml^−1 penicillin, and 100 μg ml^−1 streptomycin and either 10% fetal bovine serum (FBS; cyst growth) or 5% FBS and 1% insulin-transferrin-selenium-X (ITS-X) supplement (cell proliferation); all from Life Technologies Ltd, Paisley, UK) at 37° C. in a humidified atmosphere of 5% CO2.
To grow cysts, MDCK cells were cultured in collagen gels using a modification of the method of Grantham et al. (26). Cells were trypsinized with 0.25% (wt/vol) trypsin for 30 minutes at 37° C., diluted with MDCK media containing 10% FBS to form a suspension of between 1-3×10^4 cells ml^−1, and aliquoted into individual wells of a 24-well plate (0.1 ml per well). Each well contained 0.4 ml of ice-cold Vitrogen (3.0 mg ml^−1 collagen; Cohesion Technologies Inc., Palo Alto, USA) supplemented with 10% (vol/vol) 10× minimum essential medium, 10 mM N-[2-hydroxyethyl]piperazine-N′-[2-ethanesulphonic acid] (Hepes), 27 mM NaHCO3, 100 U ml^−1 penicillin, and 100 μg ml^−1 streptomycin, and adjusted to pH 7.4 with NaOH. The 24-well plate was gently agitated to distribute cells throughout the Vitrogen and incubated in a water bath at 37° C. for 90 minutes to promote gelation of the Vitrogen.
After gelation, 1.5 ml MDCK media containing 10% FBS was added to each well of the 24-well plate. To promote cyst growth, we added cAMP agonists (forskolin (10 μM), 3-isobutyl-1-methylxanthine (IBMX; 100 μM), and 8-(4-chlorophenylthio) adenosine 3′:5′-cyclic monophosphate (CPT-cAMP; 500 μM)) to the MDCK media. Plates were maintained at 37° C. in a humidified atmosphere of 5% CO2 and the MDCK media containing cAMP agonists changed every three days.
Twelve days after seeding collagen gels with MDCK cells, cysts were readily detected at ×1000 magnification using an inverted microscope with phase contrast optics (Leica, model DMIL, Milton Keynes, UK). To test the effect of CFTR modulators on cyst growth, drugs were added to MDCK media in the continued presence of cAMP agonists. MDCK media containing cAMP agonists and CFTR modulators was changed every 3 days for a total period of 9 days. Photographs of individual cysts were taken before the addition of CFTR modulators and at three day intervals over the duration of the experiment. To identify individual cysts, each cyst was assigned a unique reference number using a grid placed below the 24-well plate.
The diameter of cysts was measured directly from photographs of cysts using images that had been magnified by identical amounts. By assuming that cysts are spherical in shape, we calculated cyst volume ( 4/3·π·r^3).

Type I MDCK cells = test: Proliferation of MDCK cells (cell counting); assay type: cell-based, canine
Experimental: as §1
To test the effect of CFTR modulators on the proliferation of MDCK cells, we used Type I MDCK cells grown in media containing 5% FBS and 1% ITS-X supplement. On day −1, MDCK cells were seeded at 7.5×10^4 cells ml^−1 in 35 mm dishes containing MDCK media with 1% FBS and 1% ITS-X supplement. On day 0, the concentration of FBS was reduced further to 0.01% and CFTR modulators added to the MDCK media. MDCK media containing CFTR modulators was changed every 2 days for a total period of 6 days. To determine the number of cells per 35 mm dish, Type I MDCK cells were harvested using trypsin (0.25% wt/vol), centrifuged at 1200 rpm for 5 min and resuspended in 1 ml of MDCK media before counting using a haemocytometer.

T1 sequence (P13569 whole entry): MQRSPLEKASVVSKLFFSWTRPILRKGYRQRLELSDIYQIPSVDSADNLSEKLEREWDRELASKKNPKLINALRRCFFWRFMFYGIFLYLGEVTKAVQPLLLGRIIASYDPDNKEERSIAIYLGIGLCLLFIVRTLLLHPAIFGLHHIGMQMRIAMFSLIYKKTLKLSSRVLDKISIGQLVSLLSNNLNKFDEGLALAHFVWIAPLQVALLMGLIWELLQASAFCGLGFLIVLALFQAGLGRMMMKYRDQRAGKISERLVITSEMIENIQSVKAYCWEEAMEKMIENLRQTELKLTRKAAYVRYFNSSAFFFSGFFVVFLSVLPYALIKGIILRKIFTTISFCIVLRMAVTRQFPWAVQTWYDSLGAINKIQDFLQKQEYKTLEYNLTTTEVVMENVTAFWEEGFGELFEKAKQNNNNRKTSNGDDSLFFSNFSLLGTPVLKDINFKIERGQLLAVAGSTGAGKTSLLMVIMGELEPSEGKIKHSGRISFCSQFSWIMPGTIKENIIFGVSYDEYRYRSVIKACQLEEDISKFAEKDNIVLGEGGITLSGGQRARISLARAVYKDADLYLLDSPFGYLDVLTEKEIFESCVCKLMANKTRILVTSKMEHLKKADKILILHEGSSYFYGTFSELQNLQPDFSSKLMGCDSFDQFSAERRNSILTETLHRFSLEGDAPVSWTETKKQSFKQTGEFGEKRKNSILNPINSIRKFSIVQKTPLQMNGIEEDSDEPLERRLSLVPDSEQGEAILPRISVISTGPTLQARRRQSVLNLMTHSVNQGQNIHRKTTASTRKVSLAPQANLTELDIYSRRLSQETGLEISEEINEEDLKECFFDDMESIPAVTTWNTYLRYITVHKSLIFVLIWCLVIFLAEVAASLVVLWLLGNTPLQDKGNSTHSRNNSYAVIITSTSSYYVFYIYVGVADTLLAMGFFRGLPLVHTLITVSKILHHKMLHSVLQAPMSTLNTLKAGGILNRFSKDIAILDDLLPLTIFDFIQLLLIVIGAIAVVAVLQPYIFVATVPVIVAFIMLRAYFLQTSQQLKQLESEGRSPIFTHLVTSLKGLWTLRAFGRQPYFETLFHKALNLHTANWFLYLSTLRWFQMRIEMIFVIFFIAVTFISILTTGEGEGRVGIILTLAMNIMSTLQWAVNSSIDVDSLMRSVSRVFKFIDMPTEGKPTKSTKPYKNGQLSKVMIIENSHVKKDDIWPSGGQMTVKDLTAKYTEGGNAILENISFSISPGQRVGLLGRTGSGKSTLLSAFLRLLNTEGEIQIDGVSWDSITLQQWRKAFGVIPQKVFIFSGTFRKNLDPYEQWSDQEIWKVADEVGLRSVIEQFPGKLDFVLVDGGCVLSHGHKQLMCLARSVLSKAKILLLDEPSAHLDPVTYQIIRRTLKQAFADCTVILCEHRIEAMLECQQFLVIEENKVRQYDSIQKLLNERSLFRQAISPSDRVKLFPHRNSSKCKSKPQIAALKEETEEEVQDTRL

Compound: O=[N+]([O-])c1ccc(C=Cc2ccc([N+](=O)[O-])cc2S(=O)(=O)O)c(S(=O)(=O)O)c1 [DIDS, 4,4′-dinitrostilbene-2,2′-disulphonic acid]
- effect on activity of CFTR (wild-type human CFTR; 200 μM, added to the intracellular side): potently inhibited
- cyst volume ([1]; 200 μM, P>0.5): exception
- size of cysts (phase-contrast) ([1]; 200 μM): without effect on cyst growth
- cell growth (number of cells), day 0 to 6 (Type I MDCK cells; 200 μM): exception

Compound: O=C(O)c1cc([N+](=O)[O-])ccc1NCCCc1ccccc1 [NPPB, 5-nitro-2-(3-phenylpropylamino)-benzoic acid]
- rank order of decrease of cyst volume [1]: glibenclamide (100 μM)≧ouabain (1 μM)≧NPPB (400 μM)≧genistein (100 μM)>bumetanide
- cyst volume ([1]; 400 μM): decreased cyst volume
- size of cysts (phase-contrast) ([1]; 400 μM): visible decrease in the size of cysts
- inhibition of cell growth in the presence of cAMP agonists (Type I MDCK cells): unaffected by cAMP agonists
- rank order of prevention of cell growth (Type I MDCK cells): ouabain (1 μM)=phloxine B (40 μM)=genistein (100 μM)=NPPB (400 μM)>glibenclamide (100 μM)
- cell growth (number of cells), day 0 to 6 (Type I MDCK cells; 400 μM): prevented cell growth

Compound: O=C1OC2(c3cc(I)c(O)c(I)c3Oc3c2cc(I)c(O)c3I)c2c(Cl)c(Cl)c(Cl)c(Cl)c21 [bengal rose B]
- potency of CFTR inhibition compared with glibenclamide (wild-type human CFTR): potency greater than or equal to that of glibenclamide
- reversibility of CFTR inhibition (wild-type human CFTR): irreversible
- single-channel activity (i and/or Po) (wild-type human CFTR; 10 μM): never able to resolve discrete channel openings
- rank order of potency for CFTR inhibition (wild-type human CFTR; concentration-response, FIG. 3): bengal rose B>phloxine B>eosin Y≧tetrachlorofluorescein>>fluorescein
- stimulation of CFTR channel activity (wild-type human CFTR; concentration-response, FIG. 3): stimulated channel activity
- cell growth (number of cells), day 0 to 6 (Type I MDCK cells; 5 μM): inhibited the proliferation

Compound: CCCCNc1cc(C(=O)O)cc(S(N)(=O)=O)c1Oc1ccccc1 [bumetanide]
- rank order of decrease of cyst volume [1]: glibenclamide (100 μM)≧ouabain (1 μM)≧NPPB (400 μM)≧genistein (100 μM)>bumetanide
- cyst volume ([1]; 100 μM): decreased cyst volume
- cell growth (number of cells), day 0 to 6 (Type I MDCK cells; 100 μM): exception

Compound: O=C1OC2(c3ccc(O)cc3Oc3cc(O)ccc32)c2ccccc21 [fluorescein]
- rank order of potency for CFTR inhibition (wild-type human CFTR; concentration-response, FIG. 3): bengal rose B>phloxine B>eosin Y≧tetrachlorofluorescein>>fluorescein

Compound: O=c1c(-c2ccc(O)cc2)coc2cc(O)cc(O)c12 [genistein]
- rank order of decrease of cyst volume [1]: glibenclamide (100 μM)≧ouabain (1 μM)≧NPPB (400 μM)≧genistein (100 μM)>bumetanide
- cyst volume ([1]; 100 μM): decreased cyst volume
- inhibition of cell growth in the presence of cAMP agonists (Type I MDCK cells): unaffected by cAMP agonists
- rank order of prevention of cell growth (Type I MDCK cells): ouabain (1 μM)=phloxine B (40 μM)=genistein (100 μM)=NPPB (400 μM)>glibenclamide (100 μM)
- cell growth (number of cells), day 0 to 6 (Type I MDCK cells; 100 μM): prevented cell growth

Compound: O=C(O)c1c(Cl)c(Cl)c(Cl)c(Cl)c1-c1c2ccc(=O)cc-2oc2cc(O)ccc12 [tetrachlorofluorescein]
- potency of CFTR inhibition compared with glibenclamide (wild-type human CFTR): less potently than glibenclamide
- reversibility of CFTR inhibition (wild-type human CFTR): partially reversible
- open probability (Po) (wild-type human CFTR; 100 μM): decreasing
- single-channel current amplitude (i) (wild-type human CFTR; 100 μM): decreasing
- channel block at positive voltages (wild-type human CFTR; 100 μM, symmetrical 147 mM Cl−): relieved
- effect on CFTR Cl− currents at negative voltages (wild-type human CFTR; 100 μM, symmetrical 147 mM Cl−): decreased CFTR Cl^− currents
- n (slope factor, Hill coefficient) of CFTR inhibition (wild-type human CFTR; ATP 0.3 mM, PKA 75 nM, −50 mV): 0.7
- pKi (wild-type human CFTR; ATP 0.3 mM, PKA 75 nM, −50 mV, 37° C., drug in intracellular solution, read-out: Ki (drug concentration causing half-maximal inhibition of CFTR Cl− current, Hill plot)): 4.24
- rank order of potency for CFTR inhibition (wild-type human CFTR; concentration-response, FIG. 3): bengal rose B>phloxine B>eosin Y≧tetrachlorofluorescein>>fluorescein
- voltage-dependence of CFTR inhibition (wild-type human CFTR; voltage ramp ±100 mV, symmetrical 147 mM Cl−, ATP 1 mM): voltage-dependent
- cell growth (number of cells), day 0 to 6 (Type I MDCK cells; 200 μM): inhibited the proliferation
